Measurements from ChEMBL document CHEMBL1201862, “PubChem BioAssay data set” (2004).
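Interpolation was linear, between the two tested concentrations surrounding the appropriate level; five concentrations were tested over 48 hours in 96-well plates. GI50: concentration for 50% inhibition of growth.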 Active and inactive are the calls of the source. Rule as the data show it: active = GI50 up to about 1.1 µM and inactive = higher. Positions of bridges follow the written chain, without caps; N, C: chain ends. Residues, ends and D or L forms follow the SMILES beside them.

Key:
Test in all cases: growth of human tumour cells (NCI), 48 h
LOX IMVI = tested on: LOX IMVI
HCT-116 = tested on: HCT-116
CAKI-1 = tested on: CAKI-1
OVCAR-5 = tested on: OVCAR-5
IGROV-1 = tested on: IGROV-1
BT-549 = tested on: BT-549
MDA-N = tested on: MDA-N
SR = tested on: SR
Malme-3M = tested on: Malme-3M
NCI-H226 = tested on: NCI-H226
MCF7 = tested on: MCF7
SNB-19 = tested on: SNB-19
K562 = tested on: K562
HOP-92 = tested on: HOP-92
HCC 2998 = tested on: HCC 2998
Hs-578T = tested on: Hs-578T
MDA-MB-435 = tested on: MDA-MB-435
SF-295 = tested on: SF-295
CCRF-CEM = tested on: CCRF-CEM

Compound | GI50 (LOX IMVI) | GI50 (HCT-116) | GI50 (CAKI-1) | GI50 (OVCAR-5) | GI50 (IGROV-1) | GI50 (BT-549) | GI50 (MDA-N) | GI50 (SR) | GI50 (Malme-3M) | GI50 (NCI-H226) | GI50 (MCF7) | GI50 (SNB-19) | GI50 (K562) | GI50 (HOP-92) | GI50 (HCC 2998) | GI50 (Hs-578T) | GI50 (MDA-MB-435) | GI50 (SF-295) | GI50 (CCRF-CEM)
N=C(N)SCc1ccc(Cl)c2ccccc12.O=[N+]([O-])c1c(O)c(Cl)cc(Cl)c1Cl | 14.4 µM (inactive) | 11.8 µM (inactive) | 5.57 µM (inactive) | 13 µM (inactive) | 13 µM (inactive) | 14.8 µM (inactive) | 11.1 µM (inactive) | 5.42 µM (inactive) | 9.1 µM (inactive) | 12 µM (inactive) | 11.2 µM (inactive) | 14.4 µM (inactive) | 4.66 µM (inactive) | 5.89 µM (inactive) | 2.33 µM (inactive) | 17.9 µM (inactive) | 8.38 µM (inactive) | 11.6 µM (inactive) | 9.59 µM (inactive)
Cc1cc(C)nc(NC(=O)COc2ccc(Cl)cc2)c1 | > 100 µM (inactive) | > 100 µM (inactive) | > 100 µM (inactive) | > 100 µM (inactive) | 75.3 µM (inactive) | > 100 µM (inactive) | > 100 µM (inactive) | > 100 µM (inactive) | > 100 µM (inactive) | > 100 µM (inactive) | 85.7 µM (inactive) | > 100 µM (inactive) | > 100 µM (inactive) | > 100 µM (inactive) | – | > 100 µM (inactive) | > 100 µM (inactive) | 84.9 µM (inactive) | –
CCOC(=O)c1nc2ccccc2nc1NCc1cc(OC)c(OC)c(OC)c1 | 47 µM (inactive) | 36.1 µM (inactive) | 70.6 µM (inactive) | > 100 µM (inactive) | 53.1 µM (inactive) | 34.8 µM (inactive) | 14.8 µM (inactive) | 37.8 µM (inactive) | 29.6 µM (inactive) | 83 µM (inactive) | 35.6 µM (inactive) | – | 27.8 µM (inactive) | 34.3 µM (inactive) | 53.7 µM (inactive) | 42.9 µM (inactive) | 20.3 µM (inactive) | 54.1 µM (inactive) | 39.9 µM (inactive)
Nc1ncc(CN2CCOCC2)c(-c2ccccc2O)n1 | > 100 µM (inactive) | > 100 µM (inactive) | > 100 µM (inactive) | > 100 µM (inactive) | > 100 µM (inactive) | > 100 µM (inactive) | > 100 µM (inactive) | > 100 µM (inactive) | > 100 µM (inactive) | > 100 µM (inactive) | > 100 µM (inactive) | – | > 100 µM (inactive) | > 100 µM (inactive) | – | > 100 µM (inactive) | > 100 µM (inactive) | > 100 µM (inactive) | > 100 µM (inactive)
COC(=O)[C@@H]1C[C@@]23CCCN4CC[C@@]5(c6cccc(OC)c6N(C=O)[C@]15CC2)[C@@H]43 | > 100 µM (inactive) | > 100 µM (inactive) | > 100 µM (inactive) | > 100 µM (inactive) | > 100 µM (inactive) | > 100 µM (inactive) | > 100 µM (inactive) | > 100 µM (inactive) | > 100 µM (inactive) | > 100 µM (inactive) | > 100 µM (inactive) | > 100 µM (inactive) | – | > 100 µM (inactive) | > 100 µM (inactive) | > 100 µM (inactive) | > 100 µM (inactive) | > 100 µM (inactive) | > 100 µM (inactive)
CN(CCNC(=O)c1cn(C)c2c1ccc1cc(Cl)c(Cl)cc12)CCNC(=O)c1cn(C)c2c1ccc1cc(Cl)c(Cl)cc12 | 1.74 µM (inactive) | 1.94 µM (inactive) | 3.84 µM (inactive) | 2.79 µM (inactive) | 1.53 µM (inactive) | 19.7 µM (inactive) | 2.29 µM (inactive) | 0.56 µM (active) | 7.83 µM (inactive) | 24.7 µM (inactive) | 1.96 µM (inactive) | 2.08 µM (inactive) | 0.535 µM (active) | 2.17 µM (inactive) | 1.69 µM (inactive) | 2.17 µM (inactive) | 1.77 µM (inactive) | 2.22 µM (inactive) | 1.61 µM (inactive)
CC(=O)Oc1cc2c(c3ncccc13)OC(C)(C)C2 | – | 13.4 µM (inactive) | 7.4 µM (inactive) | 14.8 µM (inactive) | 2.29 µM (inactive) | > 100 µM (inactive) | 2.94 µM (inactive) | 1.54 µM (inactive) | 11 µM (inactive) | 16.3 µM (inactive) | 16.7 µM (inactive) | – | 6.19 µM (inactive) | 13 µM (inactive) | 15.5 µM (inactive) | 5.12 µM (inactive) | 3.33 µM (inactive) | 13 µM (inactive) | 10.5 µM (inactive)
C=CC1(C)CCC2C(=CCC3C(C)(COC4OC(C(=O)O)C(O)C(O)C4O)C(O)CCC23C)C1.C=CC1(C)CCC2C(=CCC3C2(C)CC(O)C(O)C3(C)COC2OC(C(=O)O)C(O)C(O)C2O)C1 (configuration not stated) | > 100 µM (inactive) | > 100 µM (inactive) | > 100 µM (inactive) | > 100 µM (inactive) | > 100 µM (inactive) | > 100 µM (inactive) | > 100 µM (inactive) | 44.6 µM (inactive) | > 100 µM (inactive) | > 100 µM (inactive) | 71 µM (inactive) | > 100 µM (inactive) | 54.5 µM (inactive) | > 100 µM (inactive) | > 100 µM (inactive) | > 100 µM (inactive) | > 100 µM (inactive) | 70.1 µM (inactive) | 19.4 µM (inactive)
CNC(=O)Nc1nc2cc([N+](=O)[O-])ccc2[nH]1 | > 100 µM (inactive) | > 100 µM (inactive) | 61.4 µM (inactive) | > 100 µM (inactive) | 64.6 µM (inactive) | 49.9 µM (inactive) | > 100 µM (inactive) | 47.1 µM (inactive) | > 100 µM (inactive) | > 100 µM (inactive) | > 100 µM (inactive) | > 100 µM (inactive) | > 100 µM (inactive) | 86.1 µM (inactive) | > 100 µM (inactive) | > 100 µM (inactive) | > 100 µM (inactive) | > 100 µM (inactive) | 67.8 µM (inactive)
CCCCN1C(=O)CC2[C@@H]3CCc4cc(OC(C)=O)ccc4C3CC[C@]2(C)C1=O (some centres not stated) | > 10 µM (inactive) | > 10 µM (inactive) | > 10 µM (inactive) | > 10 µM (inactive) | > 10 µM (inactive) | > 10 µM (inactive) | > 10 µM (inactive) | > 10 µM (inactive) | > 10 µM (inactive) | > 10 µM (inactive) | > 10 µM (inactive) | > 10 µM (inactive) | > 10 µM (inactive) | > 10 µM (inactive) | > 10 µM (inactive) | > 10 µM (inactive) | > 10 µM (inactive) | > 10 µM (inactive) | > 10 µM (inactive)
O=C(CNc1ccccc1C(=O)O)Nn1cnc2ccc(S(=O)(=O)Nc3ccccc3C(=O)O)cc2c1=O | > 100 µM (inactive) | > 100 µM (inactive) | > 100 µM (inactive) | > 100 µM (inactive) | > 100 µM (inactive) | > 100 µM (inactive) | > 100 µM (inactive) | > 100 µM (inactive) | > 100 µM (inactive) | > 100 µM (inactive) | > 100 µM (inactive) | > 100 µM (inactive) | > 100 µM (inactive) | > 100 µM (inactive) | > 100 µM (inactive) | > 100 µM (inactive) | > 100 µM (inactive) | > 100 µM (inactive) | > 100 µM (inactive)
CC(=O)OCC1=C(C(=O)O)N2C(=O)C(NC(=O)CSc3ccncc3)C2SC1 (configuration not stated) | > 100 µM (inactive) | > 100 µM (inactive) | > 100 µM (inactive) | > 100 µM (inactive) | > 100 µM (inactive) | > 100 µM (inactive) | > 100 µM (inactive) | > 100 µM (inactive) | > 100 µM (inactive) | > 100 µM (inactive) | > 100 µM (inactive) | > 100 µM (inactive) | > 100 µM (inactive) | > 100 µM (inactive) | > 100 µM (inactive) | > 100 µM (inactive) | > 100 µM (inactive) | > 100 µM (inactive) | > 100 µM (inactive)
CC(C)=CCC/C(=C/CC/C(=C\CCc1ccoc1)C(=O)O)C(=O)O | > 100 µM (inactive) | > 100 µM (inactive) | > 100 µM (inactive) | > 100 µM (inactive) | > 100 µM (inactive) | > 100 µM (inactive) | > 100 µM (inactive) | > 10 µM (inactive) | > 100 µM (inactive) | > 100 µM (inactive) | > 100 µM (inactive) | > 100 µM (inactive) | > 100 µM (inactive) | > 100 µM (inactive) | > 100 µM (inactive) | > 100 µM (inactive) | > 100 µM (inactive) | > 100 µM (inactive) | > 100 µM (inactive)
COC(=O)C1CCC(=O)NCCCCC(NC(=O)C(N)CC(=O)O)C(=O)N1 (stereo not drawn) (H-Asp-Lys-Glu-OMe; lactam 2-3; configuration not given here) | > 100 µM (inactive) | 60 µM (inactive) | 82 µM (inactive) | > 100 µM (inactive) | > 100 µM (inactive) | > 100 µM (inactive) | > 100 µM (inactive) | > 100 µM (inactive) | > 100 µM (inactive) | > 100 µM (inactive) | 62.7 µM (inactive) | > 100 µM (inactive) | > 100 µM (inactive) | – | > 100 µM (inactive) | > 100 µM (inactive) | > 100 µM (inactive) | > 100 µM (inactive) | 32.4 µM (inactive)
